Results: patent US20160108381A1, “DNA POLYMERASES AND MUTANTS THEREOF” (LIFE TECHNOLOGIES CORPORATION, priority 2001, published 2016)

Target: T1, Clostridium thermosulfurogenes DNA polymerase, N-terminal His6 tag (Cth-His), SEQ ID NO:15 (Thermoanaerobacterium thermosulfurigenes, UniProt Q6X9R5)
T1 sequence (Q6X9R5 with tags, fused parts or gaps): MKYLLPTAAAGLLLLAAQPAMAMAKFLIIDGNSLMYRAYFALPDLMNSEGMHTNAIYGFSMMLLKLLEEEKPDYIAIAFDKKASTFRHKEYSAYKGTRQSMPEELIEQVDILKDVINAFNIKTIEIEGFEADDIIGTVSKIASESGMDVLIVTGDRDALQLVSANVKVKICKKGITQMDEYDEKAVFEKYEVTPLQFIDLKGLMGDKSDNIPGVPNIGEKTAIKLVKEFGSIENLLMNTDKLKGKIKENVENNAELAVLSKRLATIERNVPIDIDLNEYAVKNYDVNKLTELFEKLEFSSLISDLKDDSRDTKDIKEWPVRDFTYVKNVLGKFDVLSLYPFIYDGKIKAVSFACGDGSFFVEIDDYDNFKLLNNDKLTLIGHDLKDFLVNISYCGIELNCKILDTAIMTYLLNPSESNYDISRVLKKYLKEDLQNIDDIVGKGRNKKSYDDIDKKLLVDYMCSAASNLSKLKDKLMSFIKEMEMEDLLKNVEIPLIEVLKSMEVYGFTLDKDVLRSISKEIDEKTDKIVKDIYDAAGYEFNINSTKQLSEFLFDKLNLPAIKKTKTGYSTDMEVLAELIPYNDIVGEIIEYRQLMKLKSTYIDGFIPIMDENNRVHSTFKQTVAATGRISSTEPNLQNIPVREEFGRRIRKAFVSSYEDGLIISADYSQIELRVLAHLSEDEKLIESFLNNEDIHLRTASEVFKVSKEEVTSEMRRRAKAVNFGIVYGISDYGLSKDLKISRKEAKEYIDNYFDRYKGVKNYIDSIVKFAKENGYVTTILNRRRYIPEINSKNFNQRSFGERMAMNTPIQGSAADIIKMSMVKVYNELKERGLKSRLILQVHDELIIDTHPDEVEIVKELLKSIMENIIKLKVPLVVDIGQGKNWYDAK
Assay: Steady-state kinetics, DNA- and RNA-dependent polymerase activity
Text: Subcloning of genes for Cst and Cth DNA polymerases. In order to improve expression and simplify purification of Cst and Cth DNA polymerase, the genes were subcloned downstream of a T7 promoter and an amino-terminal His6 tag sequence was introduced using Gateway cloning technology (Invitrogen Corporation, Carlsbad, Calif.). The sequence of the DNA oligonucleotide used at the 5′ end of the Cst gene was: 5′-[…] ATAGAC 3′ (SEQ ID NO:37). The sequence of the DNA oligonucleotide used at the 5′ end of the Cth gene was: 5′-[…] […]-3′ (SEQ ID NO:38). The sequence of the DNA oligonucleotide used at the 3′ end of each gene was the same: 5′-[…] […] 3′ (SEQ ID NO:39). Purified pET26B plasmid DNA (Novagen Inc., Madison, Wis.) bearing the gene for Cst or Cth DNA polymerase was amplified by PCR utilizing the primers listed above and Platinum Taq HiFi DNA polymerase (Invitrogen Corporation, Carlsbad, Calif.). PCR products purified by agarose gel electrophoresis were cloned into Gateway vector pDON21 and transferred by recombination into vector pDEST17. […] Each final recombinant plasmid was transformed into the E. coli expression host BL21-AI (Invitrogen Corporation, Carlsbad, Calif.).
Purification of Cst-His and Cth-His DNA polymerases. E. coli cells (BL21AI) bearing the plasmid pDEST17 with the gene for Cst-His or Cth-His DNA polymerase were grown in 2.8-1 Fembach flasks in LB broth containing 50 μg/ml ampicillin at 37° C. After the culture reached an A590 of 1.0, expression of DNA polymerase was induced by the addition of 0.2% arabinose for 3 hr. Cells were harvested by centrifugation and stored at −70° C.
Steady-state kinetic measurements.
The assays were conducted in the presence of 1.5 mM MgCl2 at 55° C. for all enzymes except the Caldibacillus cellulovorans CompA.2 enzyme where 2 mM MgCl2 and 45° C. were used.

## Cc1cn([C@H]2C[C@H](O)[C@@H](COP(=O)(O)OP(=O)(O)OP(=O)(O)O)O2)c(=O)[nH]c1=O [dTTP]
Table 34, RNA template, 2 mM MgCl2, 45 °C per footnote
  Kcat RNA (dTTP): 0.94 s⁻¹
Table 40, dTTP, 55 °C
  kCAT Ratio (RNA/DNA): 0.57
read-out: Km RNA (dTTP), Table 34, RNA template, 2 mM MgCl2, 45 °C per footnote
  Km: 68 µM
